Reference: US8940779B2, “Microbicidal composition” (Rohm and Haas Company, priority 2007, dated 2015)
Several values for one entry are separate records, joined by “and”; a condition that tells them apart may be missing. Equal entries are not always repeated. Where two headings read alike, the source gives them in different places.

What was measured:
Type in all cases: cell-based
Ps. aeruginosa ATCC#9027 = assay: Microtiter plate MIC synergy test (Kull synergy index), bacterium; details: for Ca, first component alone (QA, MIC) / Cb, MBIT alone (QB, MIC): Ps. aeruginosa; for Ca, first component alone (QA, MIC): component acting alone; for Cb, MBIT alone (QB, MIC): MBIT acting alone; for MIC: Pseudomonas aeruginosa, ATCC9027
[1] = tested on: Candida albicans (C. albicans, ATCC 10231); assay: Microtiter plate MIC synergy test (Kull synergy index), yeast; details: for Ca, first component alone (QA, MIC) / Cb, MBIT alone (QB, MIC): C. albicans; for Ca, first component alone (QA, MIC): component acting alone; for Cb, MBIT alone (QB, MIC): MBIT acting alone; for MIC: Candida albicans, ATCC10231
From the text: (§1) One measure of synergism is the industrially accepted method described by Kull, F. C.; Eisman, P. C.; Sylwestrowicz, H. D. and Mayer, R. L., in Applied Microbiology 9:538-541 (1961), using the ratio determined by the formula: Qa/QA+Qb/QB=Synergy Index (“SI”) wherein: • QA=concentration of compound A (first component) in ppm, acting alone, which produced an end point (MIC of Compound A). • Qa=concentration of compound A in ppm, in the mixture, which produced an end point. • QB=concentration of compound B (second component) in ppm, acting alone, which produced an end point (MIC of Compound B). • Qb=concentration of compound B in ppm, in the mixture, which produced an end point.
(§2) When the sum of Qa/QA and Qb/QB is greater than one, antagonism is indicated. […] The lower the SI, the greater the synergy shown by that particular mixture. The minimum inhibitory concentration (MIC) of a microbicide is the lowest concentration tested under a specific set of conditions that prevents the growth of added microorganisms.
(§3) Synergy tests were conducted using standard microtiter plate assays with media designed for optimal growth of the test microorganism. Minimal salt medium supplemented with 0.2% glucose and 0.1% yeast extract (M9GY medium) was used for testing bacteria; Potato Dextrose Broth (PDB medium) was used for testing yeast and mold. In this method, a wide range of combinations of microbicides was tested by conducting high resolution MIC assays in the presence of various concentrations of MBIT. High resolution MICs were determined by adding varying amounts of microbicide to one column of a microtitre plate and doing subsequent […] dilutions using an automated liquid handling system to obtain a series of endpoints ranging from 2 ppm to 10,000 ppm active ingredient.
(§4) The synergy of the combinations of the present invention was determined against a bacterium, Escherichia coli (E. coli—ATCC #8739), a yeast, Candida albicans (C. albicans—ATCC 10231), and a mold, Aspergillus niger (A. niger—ATCC 16404). The bacteria were used at a concentration of about 5×10^6 bacteria per mL and the yeast and mold at 5×10^5 fungi per mL. These microorganisms are representative of natural contaminants in many consumer and industrial applications. […] (yeast and mold) or 30° C. (bacteria).
(§5) In each test, Second Component (B) was MBIT and the First Component (A) was the other commercial microbicide.

S. aureus ATCC#6538 = assay: Microtiter plate MIC synergy test (Kull synergy index), bacterium; details: for Ca, first component alone (QA, MIC) / Cb, MBIT alone (QB, MIC): S. aureus; for Ca, first component alone (QA, MIC): component acting alone; for Cb, MBIT alone (QB, MIC): MBIT acting alone; for MIC: Staphylococcus aureus, ATCC6538
[2] = tested on: Aspergillus niger (A. niger, ATCC 16404); assay: Microtiter plate MIC synergy test (Kull synergy index), mold; details: for Ca, first component alone (QA, MIC): A. niger, component acting alone; for MIC: Aspergillus niger
From the text: as §1, §2, §3, §4, §5

N#CC(Br)(Br)C(N)=O [DBNPA, 2,2-Dibromo-3-nitrilopropionamide]
Ca, first component alone (QA, MIC) (Ps. aeruginosa ATCC#9027; contact time 24 hrs): 4.25 ppm AI | Ca, first component alone (QA, MIC) (Ps. aeruginosa ATCC#9027; contact time 48 hrs): 5.25 ppm AI | Ca, first component alone (QA, MIC) ([1]; contact time 48 hrs): 44 ppm AI | Ca, first component alone (QA, MIC) ([1]; contact time 72 hrs): >44 ppm AI | Ca, first component alone (QA, MIC) (S. aureus ATCC#6538; contact time 48 hrs): 8.5 ppm AI | Ca, first component alone (QA, MIC) ([2]; contact time 3 days): 42.5 ppm AI | Ca, first component alone (QA, MIC) ([2]; contact time 7 days): 200 ppm AI

C=O [HCHO, Formaldehyde]
Ca, first component alone (QA, MIC) (Ps. aeruginosa ATCC#9027; contact time 24 hrs): 15 ppm AI | Ca, first component alone (QA, MIC) (Ps. aeruginosa ATCC#9027; contact time 48 hrs): 26.25 ppm AI | Ca, first component alone (QA, MIC) ([1]; contact time 48 hrs): 425 ppm AI | Ca, first component alone (QA, MIC) ([1]; contact time 72 hrs): 525 ppm AI | Ca, first component alone (QA, MIC) (S. aureus ATCC#6538; contact time 24 hrs): 30 ppm AI | Ca, first component alone (QA, MIC) (S. aureus ATCC#6538; contact time 48 hrs): 30 ppm AI | Ca, first component alone (QA, MIC) ([2]; contact time 3 days): 200 ppm AI | Ca, first component alone (QA, MIC) ([2]; contact time 7 days): 425 ppm AI

Cn1sc2ccccc2c1=O [MBIT, N-methyl-1,2-benzisothiazolin-3-one]
Cb - ppm AI of MBIT (MIC end-point; alone QB or in the mixture Qb) (Ps. aeruginosa ATCC#9027; Ps. Aeruginosa ATCC#9027, contact time 24 hrs, Table 5): 100 ppm | Cb - ppm AI of MBIT (MIC end-point; alone QB or in the mixture Qb) (Ps. aeruginosa ATCC#9027; Ps. Aeruginosa ATCC#9027, contact time 48 hrs, Table 5): 175 ppm | Cb - ppm AI of MBIT (MIC end-point; alone QB or in the mixture Qb) (Ps. aeruginosa ATCC#9027; Ps. aeruginosa ATCC#9027, contact time 24 hrs, Table 6): 100 ppm | Cb - ppm AI of MBIT (MIC end-point; alone QB or in the mixture Qb) (Ps. aeruginosa ATCC#9027; Ps. aeruginosa ATCC#9027, contact time 48 hrs, Table 6): 175 ppm | Cb, MBIT alone (QB, MIC) (Ps. aeruginosa ATCC#9027; contact time 24 hrs): 100 ppm AI | Cb, MBIT alone (QB, MIC) (Ps. aeruginosa ATCC#9027; contact time 48 hrs): 175 ppm AI | Cb - ppm AI of MBIT (MIC end-point; alone QB or in the mixture Qb) ([1]; C. albicans ATCC # 10231, contact time 48 hrs, Table 5): 30 ppm | Cb - ppm AI of MBIT (MIC end-point; alone QB or in the mixture Qb) ([1]; C. albicans ATCC # 10231, contact time 48 hrs, Table 6): 30 ppm | Cb - ppm AI of MBIT (MIC end-point; alone QB or in the mixture Qb) ([1]; C. albicans ATCC # 10231, contact time 72 hrs, Table 5): 30 ppm | Cb - ppm AI of MBIT (MIC end-point; alone QB or in the mixture Qb) ([1]; C. albicans ATCC # 10231, contact time 72 hrs, Table 6): 30 ppm | Cb, MBIT alone (QB, MIC) ([1]; contact time 48 hrs): 30 ppm AI | Cb, MBIT alone (QB, MIC) ([1]; contact time 72 hrs): 30 ppm AI | Cb - ppm AI of MBIT (MIC end-point; alone QB or in the mixture Qb) (S. aureus ATCC#6538; S. aureus ATCC#6538, contact time 24 hrs, Table 5): 30 ppm | Cb - ppm AI of MBIT (MIC end-point; alone QB or in the mixture Qb) (S. aureus ATCC#6538; S. aureus ATCC#6538, contact time 24 hrs, Table 6): 30 ppm | Cb - ppm AI of MBIT (MIC end-point; alone QB or in the mixture Qb) (S. aureus ATCC#6538; S. aureus ATCC#6538, contact time 48 hrs, Table 5): 60 ppm | Cb - ppm AI of MBIT (MIC end-point; alone QB or in the mixture Qb) (S. aureus ATCC#6538; S. aureus ATCC#6538, contact time 48 hrs, Table 6): 60 ppm | Cb, MBIT alone (QB, MIC) (S. aureus ATCC#6538; contact time 24 hrs): 60 ppm AI and 30 ppm AI | Cb, MBIT alone (QB, MIC) (S. aureus ATCC#6538; contact time 48 hrs): 60 ppm AI | Cb - ppm AI of MBIT (MIC end-point; alone QB or in the mixture Qb) ([2]; A. niger ATCC # 16404, contact time 3 days, Table 5): 37.5 ppm | Cb - ppm AI of MBIT (MIC end-point; alone QB or in the mixture Qb) ([2]; A. niger ATCC # 16404, contact time 3 days, Table 6): 37.5 ppm | Cb - ppm AI of MBIT (MIC end-point; alone QB or in the mixture Qb) ([2]; A. niger ATCC # 16404, contact time 7 days, Table 5): 150 ppm | Cb - ppm AI of MBIT (MIC end-point; alone QB or in the mixture Qb) ([2]; A. niger ATCC # 16404, contact time 7 days, Table 6): 150 ppm

CCCCCCCCn1sccc1=O [OIT, 2-N-octyl-4-isothiazolin-3-one]
Ca, first component alone (QA, MIC) (Ps. aeruginosa ATCC#9027; contact time 24 hrs): 650 ppm AI | Ca, first component alone (QA, MIC) (Ps. aeruginosa ATCC#9027; contact time 48 hrs): 650 ppm AI | Ca, first component alone (QA, MIC) ([1]; contact time 48 hrs): 3.25 ppm AI | Ca, first component alone (QA, MIC) ([1]; contact time 72 hrs): 3.25 ppm AI | Ca, first component alone (QA, MIC) (S. aureus ATCC#6538; contact time 24 hrs): 30 ppm AI | Ca, first component alone (QA, MIC) (S. aureus ATCC#6538; contact time 48 hrs): 200 ppm AI | Ca, first component alone (QA, MIC) ([2]; contact time 3 days): 0.65 ppm AI | Ca, first component alone (QA, MIC) ([2]; contact time 7 days): 8.75 ppm AI

CCCC1COC(Cn2cncn2)(c2ccc(Cl)cc2Cl)O1 (stereo not shown) [propiconazole]
MIC (Ps. aeruginosa ATCC#9027; Ps. aeruginosa ATCC#9027, contact time 24 hrs, read-out: Ca - ppm AI of Propiconazole (MIC end-point; alone QA or in the mixture Qa)): 875 µg/mL | MIC (Ps. aeruginosa ATCC#9027; Ps. aeruginosa ATCC#9027, contact time 48 hrs, read-out: Ca - ppm AI of Propiconazole (MIC end-point; alone QA or in the mixture Qa)): 875 µg/mL | MIC ([1]; C. albicans ATCC # 10231, contact time 48 hrs, read-out: Ca - ppm AI of Propiconazole (MIC end-point; alone QA or in the mixture Qa)): 525 µg/mL | MIC ([1]; C. albicans ATCC # 10231, contact time 72 hrs, read-out: Ca - ppm AI of Propiconazole (MIC end-point; alone QA or in the mixture Qa)): 525 µg/mL | MIC (S. aureus ATCC#6538; S. aureus ATCC#6538, contact time 24 hrs, read-out: Ca - ppm AI of Propiconazole (MIC end-point; alone QA or in the mixture Qa)): 1100 µg/mL | MIC (S. aureus ATCC#6538; S. aureus ATCC#6538, contact time 48 hrs, read-out: Ca - ppm AI of Propiconazole (MIC end-point; alone QA or in the mixture Qa)): 1100 µg/mL | MIC ([2]; ATCC16404, 72 h, A. niger ATCC # 16404, contact time 3 days, read-out: Ca - ppm AI of Propiconazole (MIC end-point; alone QA or in the mixture Qa)): 52.5 µg/mL | MIC ([2]; ATCC16404, 168 h, A. niger ATCC # 16404, contact time 7 days, read-out: Ca - ppm AI of Propiconazole (MIC end-point; alone QA or in the mixture Qa)): 87.5 µg/mL

CC(C)(C)C(O)(CCc1ccc(Cl)cc1)Cn1cncn1 (stereo not shown) [tebuconazole]
MIC (Ps. aeruginosa ATCC#9027; Ps. aeruginosa ATCC#9027, contact time 24 hrs, read-out: Ca - ppm AI of Tebuconazole (MIC end-point; alone QA or in the mixture Qa)): 875 µg/mL | MIC (Ps. aeruginosa ATCC#9027; Ps. aeruginosa ATCC#9027, contact time 48 hrs, read-out: Ca - ppm AI of Tebuconazole (MIC end-point; alone QA or in the mixture Qa)): 1100 µg/mL | MIC ([1]; C. albicans ATCC # 10231, contact time 48 hrs, read-out: Ca - ppm AI of Tebuconazole (MIC end-point; alone QA or in the mixture Qa)): 110 µg/mL | MIC ([1]; C. albicans ATCC # 10231, contact time 72 hrs, read-out: Ca - ppm AI of Tebuconazole (MIC end-point; alone QA or in the mixture Qa)): 110 µg/mL | MIC (S. aureus ATCC#6538; S. aureus ATCC#6538, contact time 24 hrs, read-out: Ca - ppm AI of Tebuconazole (MIC end-point; alone QA or in the mixture Qa)): 300 µg/mL | MIC (S. aureus ATCC#6538; S. aureus ATCC#6538, contact time 48 hrs, read-out: Ca - ppm AI of Tebuconazole (MIC end-point; alone QA or in the mixture Qa)): 425 µg/mL | MIC ([2]; ATCC16404, 72 h, A. niger ATCC # 16404, contact time 3 days, read-out: Ca - ppm AI of Tebuconazole (MIC end-point; alone QA or in the mixture Qa)): 4.25 µg/mL | MIC ([2]; ATCC16404, 168 h, A. niger ATCC # 16404, contact time 7 days, read-out: Ca - ppm AI of Tebuconazole (MIC end-point; alone QA or in the mixture Qa)): 11 µg/mL
